Experimental data reported in ChEMBL document CHEMBL3526058, “Investigating the enteroenteric recirculation of apixaban, a factor Xa inhibitor: administration of activated charcoal to bile duct-cannulated rats and dogs receiving an intravenous dose and use of drug transporter knockout rats” (Drug Metab Dispos, 2013).

Columns and labels:
Rattus norvegicus [1] = assay: Metabolism and biliary clearance in wild-type 30 mins activated charcoal pre-treated bile duct-cannulated Sprague-Dawley rat at 2 mg/kg, iv followed by activated charcoal administration 5 to 180 mins post compound dosing relative to total clearance; assay type: ADME, organism-based; design: dose 2 mg/kg, route intravenous; conditions: in vivo
[2] = Renal clearance in P-gp-knockout Sprague-Dawley rat at 2 mg/kg, iv; assay type: ADME, organism-based, Kidney; design: dose 2 mg/kg, route intravenous; conditions: in vivo
[3] = Half life in bile duct-cannulated beagle dog at 1 mg/kg, iv administered as 5 mins infusion followed by activated charcoal administration 10 to 420 mins post compound dosing; assay type: ADME, organism-based, Canis lupus familiaris; design: dose 1 mg/kg, route intravenous; conditions: in vivo
Rattus norvegicus [4] = assay: Metabolism and biliary clearance at 8 hrs in wild-type bile duct-cannulated Sprague-Dawley rat at 2 mg/kg, iv administered 0.125 hr post GF-120918 treatment; assay type: ADME, organism-based; design: dose 2 mg/kg, route intravenous; conditions: in vivo
[5] = Drug recovery in bile of bile duct-cannulated Sprague-Dawley rat at 2 mg/kg, iv measured up to 24 hrs; assay type: ADME, organism-based; design: dose 2 mg/kg, route intravenous; conditions: read-out: Drug recovery
[6] = Clearance in wild-type bile duct-cannulated Sprague-Dawley rat at 2 mg/kg, iv administered 0.125 hr post GF-120918 treatment; assay type: ADME, organism-based; design: dose 2 mg/kg, route intravenous; conditions: in vivo, with GF-120918
[7] = Clearance in BCRP-knockout Sprague-Dawley rat at 2 mg/kg, iv; assay type: ADME, organism-based; design: dose 2 mg/kg, route intravenous; conditions: in vivo
[8] = Half life in bile duct-cannulated beagle dog at 1 mg/kg, iv administered as 5 mins infusion; assay type: ADME, organism-based, Canis lupus familiaris; design: dose 1 mg/kg, route intravenous; conditions: in vivo
[9] = Drug recovery in bile of bile duct-cannulated P-gp-knockout Sprague-Dawley rat at 2 mg/kg, iv measured up to 24 hrs; assay type: ADME, organism-based; design: dose 2 mg/kg, route intravenous; conditions: read-out: Drug recovery
[10] = Drug recovery in urine of bile duct-cannulated BCRP-knockout Sprague-Dawley rat at 2 mg/kg, iv measured up to 24 hrs; assay type: ADME, organism-based; design: dose 2 mg/kg, route intravenous; conditions: read-out: Drug recovery
[11] = Half life in BCRP-knockout Sprague-Dawley rat at 2 mg/kg, iv; assay type: ADME, organism-based; design: dose 2 mg/kg, route intravenous; conditions: in vivo
[12] = Clearance in wild-type 30 mins activated charcoal pre-treated bile duct-cannulated Sprague-Dawley rat at 2 mg/kg, iv followed by activated charcoal administration 5 to 180 mins post compound dosing; assay type: ADME, organism-based; design: dose 2 mg/kg, route intravenous; conditions: in vivo
[13] = Drug recovery in bile of bile duct-cannulated beagle dog at 1 mg/kg, iv administered as 5 mins infusion followed by activated charcoal administration 10 to 420 mins post compound measured up to 72 hrs; assay type: ADME, organism-based, Canis lupus familiaris; design: dose 1 mg/kg, route intravenous; conditions: read-out: Drug recovery
[14] = Drug recovery in urine of 30 mins activated charcoal pre-treated bile duct-cannulated Sprague-Dawley rat at 2 mg/kg, iv followed by activated charcoal administration 5 to 180 mins post compound dosing measured up to 48 hrs; assay type: ADME, organism-based; design: dose 2 mg/kg, route intravenous; conditions: read-out: Drug recovery
Canis familiaris = assay: Clearance in bile duct-cannulated beagle dog at 1 mg/kg, iv administered as 5 mins infusion; assay type: ADME, organism-based, Canis lupus familiaris; design: dose 1 mg/kg, route intravenous; conditions: in vivo
[15] = Cmax in bile duct-cannulated beagle dog at 1 mg/kg, iv administered as 5 mins infusion followed by activated charcoal administration 10 to 420 mins post compound dosing; assay type: ADME, organism-based, Canis lupus familiaris; design: dose 1 mg/kg, route intravenous; conditions: in vivo
[16] = AUC (0 to infinity) in wild-type bile duct-cannulated Sprague-Dawley rat at 2 mg/kg, iv; assay type: ADME, organism-based; design: time infinity, dose 2 mg/kg, route intravenous; conditions: in vivo
Rattus norvegicus [17] = assay: Intestinal clearance in wild-type 30 mins activated charcoal pre-treated bile duct-cannulated Sprague-Dawley rat at 2 mg/kg, iv followed by activated charcoal administration 5 to 180 mins post compound dosing relative to total clearance; assay type: ADME, organism-based; design: dose 2 mg/kg, route intravenous; conditions: in vivo
[18] = Clearance in P-gp-knockout Sprague-Dawley rat at 2 mg/kg, iv; assay type: ADME, organism-based; design: dose 2 mg/kg, route intravenous; conditions: in vivo
[19] = Drug recovery in urine of Sprague-Dawley rat at 30 mg/kg, po measured up to 168 hrs; assay type: ADME, organism-based; design: dose 30 mg/kg, route oral; conditions: read-out: Drug recovery
[20] = Half life in wild-type 30 mins activated charcoal pre-treated bile duct-cannulated Sprague-Dawley rat at 2 mg/kg, iv followed by activated charcoal administration 5 to 180 mins post compound dosing; assay type: ADME, organism-based; design: dose 2 mg/kg, route intravenous; conditions: in vivo
[21] = Drug recovery in bile of bile duct-cannulated Sprague-Dawley rat at 30 mg/kg, po measured up to 48 hrs; assay type: ADME, organism-based; design: dose 30 mg/kg, route oral; conditions: read-out: Drug recovery
[22] = Drug recovery in bile of 30 mins activated charcoal pre-treated bile duct-cannulated Sprague-Dawley rat at 2 mg/kg, iv followed by activated charcoal administration 5 to 180 mins post compound dosing measured up to 48 hrs; assay type: ADME, organism-based; design: dose 2 mg/kg, route intravenous; conditions: read-out: Drug recovery
[23] = AUC (0 to infinity) in P-gp-knockout Sprague-Dawley rat at 2 mg/kg, iv; assay type: ADME, organism-based; design: time infinity, dose 2 mg/kg, route intravenous; conditions: plasma
[24] = Cmax in bile duct-cannulated beagle dog at 1 mg/kg, iv administered as 5 mins infusion; assay type: ADME, organism-based, Canis lupus familiaris; design: dose 1 mg/kg, route intravenous; conditions: in vivo

CL (Rattus norvegicus [1]): 33%
CL renal [2]: 6.5 mL/min/kg
half-life [3]: 1.8 h
CL (Rattus norvegicus [4]): 4.17 mL/min/kg
dose excreted at 24 h [5]: 10.7%
clearance [6]: 11.7 mL/min/kg
clearance [7]: 15 mL/min/kg
half-life [8]: 2.9 h
dose excreted at 24 h [9]: 14.1%
dose excreted at 24 h [10]: 35.5%
half-life [11]: 2.1 h
clearance [12]: 33.3 mL/min/kg
dose excreted [13]: 13.1%
dose excreted [14]: 40.7%
CL (Canis familiaris): 0.667 mL/min/kg
Cmax [15]: 4330 ng/mL
AUC(0-inf) [16]: 1410 ng·h/mL
CL (Rattus norvegicus [17]): 28%
clearance [18]: 13.3 mL/min/kg
dose excreted at 168 h [19]: 13.4%
half-life [20]: 0.8 h
dose excreted at 48 h [21]: 2.6%
dose excreted [22]: 15.7%
AUC(0-inf) [23]: 2040 ng·h/mL
Cmax [24]: 4430 ng/mL
SMILES: COc1ccc(-n2nc(C(N)=O)c3c2[14C](=O)N(c2ccc(N4CCCCC4=O)cc2)CC3)cc1
